The values below are quoted from earlier work in US20140296485A1, “ANIONIC DISPLACER MOLECULES FOR HYDROPHOBIC DISPLACEMENT CHROMATOGRAPHY” (SACHEM, INC., priority 2011, published 2014).

SMILES strings stand for the structures.

The conditions of the data set: pH-buffering compounds.

Regarding `CC(C)(CC(=O)O)CC(=O)O` [3,3-dimethylglutaric acid], the “pKa of pH buffer” value is 5.9.
Take `O=C(O)CCC(=O)O` [succinic acid]: the “pKa of pH buffer” value is 5.2.
